# Key:
# human α4β7 = biological target: T1, human α4β7 (Homo sapiens, UniProt P13612+P26010); experiment: α4β7-K562 Cell Adhesion Assay (α4β7 Mediated Adhesion/VCAM-1); type: cell-based; details: K562 cells expressing human α4β7 on recombinant hVCAM-1; read-out: α4β7 IC50
# T1 construct: expressed in transfected cells
# T1 sequence (P13612 34-1032): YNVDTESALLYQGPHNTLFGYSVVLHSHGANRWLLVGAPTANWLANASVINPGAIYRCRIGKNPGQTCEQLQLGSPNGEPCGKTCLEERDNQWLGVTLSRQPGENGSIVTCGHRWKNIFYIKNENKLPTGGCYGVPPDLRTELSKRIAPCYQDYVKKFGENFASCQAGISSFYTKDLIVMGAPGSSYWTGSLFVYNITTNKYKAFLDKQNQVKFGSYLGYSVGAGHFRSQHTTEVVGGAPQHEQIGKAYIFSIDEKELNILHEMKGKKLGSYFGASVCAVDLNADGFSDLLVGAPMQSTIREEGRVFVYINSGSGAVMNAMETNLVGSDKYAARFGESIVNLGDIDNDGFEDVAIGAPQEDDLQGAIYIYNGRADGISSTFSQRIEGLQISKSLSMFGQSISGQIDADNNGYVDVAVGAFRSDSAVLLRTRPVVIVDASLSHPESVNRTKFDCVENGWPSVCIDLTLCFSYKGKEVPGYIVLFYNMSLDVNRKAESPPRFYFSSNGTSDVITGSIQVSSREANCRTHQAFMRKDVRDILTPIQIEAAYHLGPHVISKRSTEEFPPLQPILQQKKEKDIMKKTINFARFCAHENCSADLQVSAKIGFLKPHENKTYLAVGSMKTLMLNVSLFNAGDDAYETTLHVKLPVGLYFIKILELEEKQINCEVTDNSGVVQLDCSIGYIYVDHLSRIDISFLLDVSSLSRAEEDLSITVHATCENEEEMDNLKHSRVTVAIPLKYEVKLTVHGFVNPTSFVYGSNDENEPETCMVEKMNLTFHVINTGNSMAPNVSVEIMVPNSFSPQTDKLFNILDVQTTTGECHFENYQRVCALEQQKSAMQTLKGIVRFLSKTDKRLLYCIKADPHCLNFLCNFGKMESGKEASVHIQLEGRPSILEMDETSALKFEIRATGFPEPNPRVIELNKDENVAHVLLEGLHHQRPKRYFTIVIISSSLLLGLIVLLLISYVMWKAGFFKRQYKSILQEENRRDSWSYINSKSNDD
# T1 sequence (P26010 20-798): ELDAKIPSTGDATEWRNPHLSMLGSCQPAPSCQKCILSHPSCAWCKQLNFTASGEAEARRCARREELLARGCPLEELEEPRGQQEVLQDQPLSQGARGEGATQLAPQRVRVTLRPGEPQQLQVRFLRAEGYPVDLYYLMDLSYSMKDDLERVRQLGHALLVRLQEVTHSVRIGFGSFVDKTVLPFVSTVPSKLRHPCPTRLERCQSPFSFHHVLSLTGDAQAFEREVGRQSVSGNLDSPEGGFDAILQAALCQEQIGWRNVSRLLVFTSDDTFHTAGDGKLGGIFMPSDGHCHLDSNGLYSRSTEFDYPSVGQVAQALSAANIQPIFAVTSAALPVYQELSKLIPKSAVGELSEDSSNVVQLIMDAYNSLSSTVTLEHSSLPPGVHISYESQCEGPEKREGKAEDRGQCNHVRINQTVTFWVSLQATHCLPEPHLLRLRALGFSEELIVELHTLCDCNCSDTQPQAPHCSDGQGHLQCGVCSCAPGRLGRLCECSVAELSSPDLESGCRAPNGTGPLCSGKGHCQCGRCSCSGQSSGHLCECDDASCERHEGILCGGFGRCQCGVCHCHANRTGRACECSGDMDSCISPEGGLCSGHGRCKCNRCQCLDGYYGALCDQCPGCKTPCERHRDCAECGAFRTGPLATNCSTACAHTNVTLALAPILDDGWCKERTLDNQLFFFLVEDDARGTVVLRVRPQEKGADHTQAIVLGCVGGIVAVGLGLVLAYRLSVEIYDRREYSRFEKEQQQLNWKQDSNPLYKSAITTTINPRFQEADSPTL
# Method in brief: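 Calcein AM-labelled K562 cells stably expressing human α4β7 adhered for 1 h at room temperature, with compound, to wells coated with recombinant hVCAM-1 (4.0 μg/mL, pH 9.0) and blocked with PBS/1% BSA. After washing, cells were lysed in 1% SDS/Tris pH 8.0 and fluorescence read at 485/530 nm.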
# α4β1 = α4β1 (Homo sapiens, UniProt P05556+P13612); experiment: Ramos Cell Adhesion Assay (α4β1 Mediated Adhesion/VCAM-1); type: cell-based; set-up: Ramos cells, (50 μL at 2×10^6/mL) labeled with 5 μM Calcein AM; endogenous in cells; host or cells: Ramos cells; details: Ramos cells on recombinant hVCAM-1; read-out: α4β1 IC50
# Chain of α4β1 (P05556 21-798, one chain of several): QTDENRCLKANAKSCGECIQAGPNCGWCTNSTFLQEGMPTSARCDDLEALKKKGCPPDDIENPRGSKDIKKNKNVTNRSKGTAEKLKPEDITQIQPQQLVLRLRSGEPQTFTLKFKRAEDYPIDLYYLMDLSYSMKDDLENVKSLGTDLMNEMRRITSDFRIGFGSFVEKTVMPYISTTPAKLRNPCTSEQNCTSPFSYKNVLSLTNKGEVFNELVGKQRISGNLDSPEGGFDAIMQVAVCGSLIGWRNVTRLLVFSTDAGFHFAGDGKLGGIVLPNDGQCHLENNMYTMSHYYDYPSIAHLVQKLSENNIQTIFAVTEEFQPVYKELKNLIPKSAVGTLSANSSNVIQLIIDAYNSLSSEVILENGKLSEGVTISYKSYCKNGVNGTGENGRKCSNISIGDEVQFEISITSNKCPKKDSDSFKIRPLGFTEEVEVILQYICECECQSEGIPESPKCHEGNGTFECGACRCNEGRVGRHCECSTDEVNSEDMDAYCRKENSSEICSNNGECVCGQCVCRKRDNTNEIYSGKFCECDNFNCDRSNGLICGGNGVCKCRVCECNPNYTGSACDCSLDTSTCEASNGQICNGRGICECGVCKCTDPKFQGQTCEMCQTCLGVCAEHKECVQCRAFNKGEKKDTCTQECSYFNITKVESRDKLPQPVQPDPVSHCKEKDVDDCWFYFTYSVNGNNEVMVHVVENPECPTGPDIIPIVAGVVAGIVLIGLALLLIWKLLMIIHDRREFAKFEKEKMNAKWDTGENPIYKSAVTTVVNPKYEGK
# Method in brief: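 Ramos cells labeled with 5 μM Calcein AM adhered for 1 h at room temperature to wells coated with recombinant human VCAM-1 (4.0 μg/mL, pH 9.0) in presence of compounds. After washing, cells lysed in SDS buffer; fluorescence read at 485/530 nm.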
SMILES,IC50 (human α4β7),IC50 (α4β1)
O=C(Nc1ccc(CC(NC(=O)C2C3CCC(CC3)N2C(=O)Cc2ccsc2)C(=O)O)cc1)c1c(Cl)cncc1Cl (stereo not shown) [Cpd 3],0.041 µM,0.043 µM
"CC(C)(C)CCN1C2CCC(CC2)[C@H]1C(=O)N[C@@H](Cc1ccc(NC(=O)c2c(Cl)cncc2Cl)cc1)C(=O)O [Cpd 16, 3-{4-[(3,5-dichloro-pyridine-4-carbonyl)-amino]-phenyl}-2-{[2-(3,3-dimethyl-butyl)-2-aza-bicyclo[2.2.2]octane-3-carbonyl]-amino}-propionic acid]",0.094 µM,0.047 µM

# From US20060223846A1, “Aza-bridged-bicyclic amino acid derivatives as alpha4 integrin antagonists” (priority 2005, published 2006)
